From patent publication US7410955B2, “Therapeutic use of agonist ligands specific to G2A receptor” (Biosynergen, Inc., priority 2002, dated 2008)

Experiments:
[1] = tested on: neutrophils (human PMNs); experiment: IL-8 release induced by LPS in neutrophils (ELISA); type: cell-based; conditions: 15 μM and 30 μM, 1 hour before 1 μg/ml LPS, supernatant after 3 hours
Text: Neutrophils were isolated from healthy adults using discontinuous percoll gradient according to the method of Szucs, S. et al. (J. Immunol. Methods, 167: 245-251, 1994). First, plasmas were separated from heparinized whole blood, and red blood cells were depleted by dextran sedimentation. Thereafter, leukocytes were layered over a percoll gradient with densities of 1.077 and 1.094 (Pharmacia, Sweden). Separated neutrophil layers were recovered from the percoll gradient interface, and then washed with HBSS (Hank's balanced salt solution, Sigma Chemical Co., USA). The remaining pellet was resuspended in RPMI 1640 medium supplemented with 10% FBS (fetal bovine serum) and 2 mM gentamicin. As a result of the examination of the cytospin stained with Wright-Giemsa (Sigma Chemical Co., USA), it was observed that the resuspension solution contained 95% or more neutrophils. Also, as a result of examination using trypan blue dye exclusion method, 98% or more neutrophils were observed. […]
The neutrophils and monocytes isolated in Examples <2-1> and <2-2> above were cultured in a 96-well plate to which RPMI1640 medium containing 10% FBS was added, at a concentration of 1×10^5 cells/well/0.2 ml, respectively. […] Then, the level of IL-8 was measured using ELISA kit (Biosource, USA).

[2] = tested on: neutrophils; experiment: Inhibition of anti-apoptosis of neutrophils by inflammation mediators (AcOr/EtBr staining); type: cell-based, human; conditions: 15 μM and 30 μM
Text: Neutrophils were isolated from healthy adults using discontinuous percoll gradient according to the method of Szucs, S. et al. (J. Immunol. Methods, 167: 245-251, 1994). First, plasmas were separated from heparinized whole blood, and red blood cells were depleted by dextran sedimentation. Thereafter, leukocytes were layered over a percoll gradient with densities of 1.077 and 1.094 (Pharmacia, Sweden). Separated neutrophil layers were recovered from the percoll gradient interface, and then washed with HBSS (Hank's balanced salt solution, Sigma Chemical Co., USA). The remaining pellet was resuspended in RPMI 1640 medium supplemented with 10% FBS (fetal bovine serum) and 2 mM gentamicin. As a result of the examination of the cytospin stained with Wright-Giemsa (Sigma Chemical Co., USA), it was observed that the resuspension solution contained 95% or more neutrophils. Also, as a result of examination using trypan blue dye exclusion method, 98% or more neutrophils were observed.
1×10^5 neutrophil cells isolated in above Example <1-1> were cultured in a 96-well plate to which RPMI1640 medium containing 10% FBS was added. Thereafter, they were treated with 1-stearoyl lysophosphatidylcoline (Sigma Chemical Co., USA) in concentrations of 15 μM and 30 μM, respectively. After 1 hour, they were treated with 1 μg/ml LPS (Sigma Chemical Co.). After 24 hours, the medium was removed from the plats, and the remaining cells were washed twice with PBS (phosphate-buffered saline) buffer at 4° C. The cells adhered to the bottom of the plate were all scraped and put into a 1.5-ml eppendorf tube. Then, they were centrifuged at 2500 rpm for 5 min, and the supernatant was removed. Again, 0.1 ml of PBS buffer at 4° C. was added to the pellet, which was then well mixed using pipetting. To 25 μl of the cell suspension was added 2 μl of AcOr/EtBr dye solution in which 100 μg/ml of acridine orange (AcOr) and 100 μg/ml of ethidium bromide (EtBr) were mixed. Then, the percentage of apoptotic cells/total cells was calculated with observing the neutrophil cells under a fluorescence microscope. […]

[3] = tested on: myeloperoxidase (MPO) in pulmonary tissues; experiment: Systemic LPS-induced acute lung injury model, lung MPO activity; type: in vivo, ICR mice
Method: ICR mice (25-30 g in body weight; MJ Ltd.) were intraperitoneally injected with LPS (induced from E. coli 055:B5) in an amount of 1 mg/kg thereby inducing Sepsis.
The activity of myeloperoxidase (MPO), an indicator of neutrophils, in pulmonary tissues was determined according to the methods of Goldblum et al (J. Appl. physiol. 59: 1978, 1985) and Parey et al (J. Immunol. 160:1007, 1998). First, mice were sacrificed and pulmonary tissues were obtained therefrom. The tissues had been homogenized in potassium phosphate buffer, and centrifuged to obtain pellets. These pellets were sonicated in potassium phosphate buffer containing 0.5% hexadecyltrimethylammonium bromide (HTAB), and incubated at 60° C. for 120 min. After centrifugation, supernatants were obtained. […] Accordingly, the absorbance of the mixture was determined at a wavelength of 460 nm. […]
ICR mice in LPS-induced septicemia model according to Reference Example <1-1> b) were divided into five groups of 7 mice (Sham group, an experimental group-1, an experimental group-2, an experimental group-3 and a control group). […] At 24 hours after LPS had been administered, the activity of MPO, an indicator of neutrophils, in the pulmonary tissues of the mice of each group, was determined as described in Reference Example 2.

CCCCCCCCCCCCCCCCCC(=O)OCC(O)COP(=O)([O-])OCC[N+](C)(C)C (centres unmarked) [1-stearoyl LPC, 1-stearoyl (18:0) lysophosphatidylcholine]
level of IL-8 release that had been increased by LPS in neutrophils [1]: inhibited by LPC in a concentration-dependent manner
percentage of neutrophil apoptosis (apoptotic cells/total cells) that had been decreased by LPS ([2]; 1 hour before 1 μg/ml LPS, read after 24 hours): increased by 1-stearoyl LPC in a concentration-dependent manner
percentage of neutrophil apoptosis that had been decreased by endogenous inflammation mediators ([2]; 100 ng/ml GM-CSF, 100 ng/ml G-CSF or 100 ng/ml IFN-γ instead of LPS): increased by 1-stearoyl LPC in a concentration-dependent manner
activity of MPO in pulmonary tissues ([3]; 20 mg/kg subcutaneous (experimental group-3), p<0.01): the most excellent effects
activity of MPO in pulmonary tissues ([3]; 5, 10 and 20 mg/kg subcutaneous, 2 and 14 hours after intraperitoneal LPS 1 mg/kg, 24 hours after LPS, vs control group): suppressed in a concentration-dependent manner
